Data taken from paper PMC10997755, “Discovery of a small-molecule inhibitor that traps Polθ on DNA and synergizes with PARP inhibitors” (Nature Communications, 2024).
pIC50: −log10 of the molar value. Several values for one entry are separate records, joined by “and”; a condition that tells them apart may be missing. Identical values can stand only once. Entries after “also recorded” stand apart in the source; their conditions may differ.

Assays:
[1] = LogP; format: physicochemical; details: method not stated
[2] = target: T1, Polθ-pol (Homo sapiens, UniProt O75417); experiment: Cy5 fluorescence Polθ-pol DNA synthesis (strand displacement) IC50 assay; format: biochemical; details: Polθ-pol DNA synthesis, Cy5 fluorescence
T1 construct: purified recombinant human Polθ-pol (comprising amino acid residues 1792–2590); made in house
T1 sequence (O75417 1792-2590): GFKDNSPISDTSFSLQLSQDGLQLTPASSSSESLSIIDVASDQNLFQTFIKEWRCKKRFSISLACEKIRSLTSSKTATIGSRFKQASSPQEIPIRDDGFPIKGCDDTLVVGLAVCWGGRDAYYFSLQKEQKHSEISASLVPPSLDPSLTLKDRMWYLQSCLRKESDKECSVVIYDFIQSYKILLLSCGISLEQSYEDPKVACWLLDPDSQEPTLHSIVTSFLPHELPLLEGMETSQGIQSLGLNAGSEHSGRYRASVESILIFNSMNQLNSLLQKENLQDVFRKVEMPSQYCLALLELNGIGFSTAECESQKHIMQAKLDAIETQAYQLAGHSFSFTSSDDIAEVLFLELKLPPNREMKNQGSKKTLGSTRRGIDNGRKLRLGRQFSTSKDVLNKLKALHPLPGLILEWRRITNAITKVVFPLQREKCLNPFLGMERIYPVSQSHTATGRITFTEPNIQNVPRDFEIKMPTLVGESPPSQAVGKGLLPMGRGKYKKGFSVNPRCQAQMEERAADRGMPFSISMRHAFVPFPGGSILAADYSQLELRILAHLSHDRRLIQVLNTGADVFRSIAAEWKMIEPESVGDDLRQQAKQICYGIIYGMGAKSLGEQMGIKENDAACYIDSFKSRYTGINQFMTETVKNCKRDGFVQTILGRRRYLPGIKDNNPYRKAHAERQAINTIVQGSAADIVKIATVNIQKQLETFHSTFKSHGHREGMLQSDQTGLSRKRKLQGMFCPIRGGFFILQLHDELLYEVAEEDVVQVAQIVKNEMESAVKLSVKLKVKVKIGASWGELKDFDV
Outline: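 Recombinant human Polθ-pol (aa 1792–2590, 5 nM) extends 60 nM Cy5/quencher primer-template with 50 uM dNTPs in 25 mM Tris pH 7.8, 10 mM MgCl2, 2.5% DMSO at 37 °C. After 18 min, stopped with 20 mM EDTA; Cy5 fluorescence read, 7-point series in triplicate, inhibition from the mean.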

[3] = test system: DLD1 BRCA2 -/- cells; experiment: Clonogenic assay; format: cell-based; details: for Average number of colonies counted / Normalized (colonies): DLD1 BRCA2 NULL, 3 treatments were given; for average / percent suvival / replicate counts: DLD1-BRCA2 null cells
Outline: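 Cells seeded at low density (300–1000 per well, by plate size and genotype), medium changed every 2 days, colonies grown 10–12 days. Fixed in water:ethanol:acetic acid, stained with 0.5% crystal violet, then counted; IC50 from ≥3 independent experiments, mean ± SEM.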

[4] = test system: DLD1 Parental cells; experiment: Clonogenic assay; format: cell-based; details: DLD1 PARENTAL, 3 treatments were given
Outline: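 Colony formation by BRCA-deficient, PALB2-mutant and wild-type cells (300–1000 cells/well) and MEFs (300 cells/well) over 10–12 days, medium changed every 2 days. Colonies fixed, stained with 0.5% crystal violet and counted; IC50 from 3 or more independent experiments.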

[5] = RTX-152 1.25 micro M + OLA 3.125 nano M
[6] = RTX-152 1.25 micro M + OLA 6.25 nano M
[7] = RTX-152 1.25 micro M + OLA 12.50 nano M
[8] = RTX-152 1.25 micro M + OLA 25.00 nano M
[9] = RTX-152 1.25 micro M + OLA 50.00 nano M
[10] = RTX-152 1.25 micro M + OLA 100.00 nano M
[11] = RTX-152 1.25 micro M, OLA 0.00 nano M
[12] = RTX-152 2.5 micro M + OLA 3.125 nano M
[13] = RTX-152 2.5 micro M + OLA 6.25 nano M
[14] = RTX-152 2.5 micro M + OLA 12.50 nano M
[15] = RTX-152 2.5 micro M + OLA 25.00 nano M
[16] = RTX-152 2.5 micro M + OLA 50.00 nano M
[17] = RTX-152 2.5 micro M + OLA 100.00 nano M
[18] = RTX-152 2.5 micro M, OLA 0.00 nano M
[19] = RTX-152 5 micro M + OLA 3.125 nano M
[20] = RTX-152 5 micro M + OLA 6.25 nano M
[21] = RTX-152 5 micro M + OLA 12.50 nano M
[22] = RTX-152 5 micro M + OLA 25.00 nano M
[23] = RTX-152 5 micro M + OLA 50.00 nano M
[24] = RTX-152 5 micro M + OLA 100.00 nano M
[25] = RTX-152 5 micro M, OLA 0.00 nano M

With `CN1CCN(c2cc(C(F)(F)F)cc(C(F)(F)F)c2OC(=O)N(C)c2ccc(F)cc2)C1=O` [RTx-152] the logP [1] was 4.2, the pIC50 [2] was 8.22 and 8.21 and 8.22 to 8.40 and the “Average number of colonies counted” value ([3]; 2.5 micro M) was 47.3333. For the same compound, the “Normalized (colonies)” value ([3]; 2.5 micro M) was 65.5172, the “Average number of colonies counted” value ([3]; 5 micro M) was 40.3333 and the “Normalized (colonies)” value ([3]; 5 micro M) was 54.4828. The “Average number of colonies counted” value ([3]; 10 micro M) was 22.6667, the “Normalized (colonies)” value ([3]; 10 micro M) was 31.0345 and the “Average number of colonies counted” value ([3]; 20 micro M) was 15. For the same compound, the “Normalized (colonies)” value ([3]; 20 micro M) was 20.6897, the pIC50 ([3]; Homo sapiens, DLD-1, read-out: IC50 clonogenic survival) was ~5.22 and the average [3, 5] was 78.6667. For the same compound, the percent suvival [3, 5] was 75.8842%, the replicate counts [3, 5] was 75 and 82 and 79 and the average [3, 6] was 66.6667. For the same compound, the percent suvival [3, 6] was 64.3087%, the replicate counts [3, 6] was 67 and 70 and 63 and the average [3, 7] was 40. The percent suvival [3, 7] was 38.5852%, the replicate counts [3, 7] was 36 and 44 and 40 and the average [3, 8] was 32.6667. For the same compound, the percent suvival [3, 8] was 31.5113%, the replicate counts [3, 8] was 35 and 31 and 32 and the average [3, 9] was 20. The percent suvival [3, 9] was 19.2926%, the replicate counts [3, 9] was 22 and 20 and 18 and the average [3, 10] was 11. For the same compound, the percent suvival [3, 10] was 10.6109%, the replicate counts [3, 10] was 8 and 11 and 14 and the average [3, 11] was 95. For the same compound, the percent suvival [3, 11] was 91.6399%, the replicate counts [3, 11] was 91 and 96 and 98 and the average [3, 12] was 71. The percent suvival [3, 12] was 68.4887%, the replicate counts [3, 12] was 68 and 70 and 75 and the average [3, 13] was 51. The percent suvival [3, 13] was 49.1961%, the replicate counts [3, 13] was 54 and 47 and 52 and the average [3, 14] was 37.6667. The percent suvival [3, 14] was 36.3344%, the replicate counts [3, 14] was 35 and 40 and 38 and the average [3, 15] was 21.6667. The percent suvival [3, 15] was 20.9003%, the replicate counts [3, 15] was 26 and 20 and 19 and the average [3, 16] was 13. The percent suvival [3, 16] was 12.5402%, the replicate counts [3, 16] was 10 and 16 and 13 and the average [3, 17] was 3.667. The percent suvival [3, 17] was 3.537%, the replicate counts [3, 17] was 7 and 2 (2×) and the average [3, 18] was 80. For the same compound, the percent suvival [3, 18] was 77.1704%, the replicate counts [3, 18] was 82 and 80 and 78 and the average [3, 19] was 45.3333. For the same compound, the percent suvival [3, 19] was 43.7299%, the replicate counts [3, 19] was 49 and 42 and 45 and the average [3, 20] was 38. The percent suvival [3, 20] was 36.6559%, the replicate counts [3, 20] was 38 and 32 and 44 and the average [3, 21] was 19.6667. The percent suvival [3, 21] was 18.9711%, the replicate counts [3, 21] was 19 and 22 and 18 and the average [3, 22] was 7.333. The percent suvival [3, 22] was 7.074%, the replicate counts [3, 22] was 10 and 8 and 4 and the average [3, 23] was 1.667. For the same compound, the percent suvival [3, 23] was 1.608%, the replicate counts [3, 23] was 3 and 1 (2×) and the average [3, 24] was 1. For the same compound, the percent suvival [3, 24] was 0.9646%, the replicate counts [3, 24] was 1 and 0 and 2 and the average [3, 25] was 73. For the same compound, the percent suvival [3, 25] was 70.418%, the replicate counts [3, 25] was 70 and 78 and 71 and the “potency in BRCA2-null cells compared with RTx-161” value ([3]; clonogenic survival) was “moderately higher IC50”. For the same compound, the “combination with Olaparib” value ([3]; clonogenic survival, Combenefit synergy) was “synergistic activity”, the “selective killing / synthetic lethality in BRCA2-null DLD1 cells” value ([3]; colony survival, versus BRCA2-WT) was “selective killing; also recorded: induction of synthetic lethality” and the “Average number of colonies counted” value ([4]; 2.5 micro M) was 115. For the same compound, the “Normalized (colonies)” value ([4]; 2.5 micro M) was 97.4576, the “Normalized (colonies)” value ([4]; 5 micro M) was 97.4576 and the “Normalized (colonies)” value ([4]; 10 micro M) was 95.7627. The “Average number of colonies counted” value ([4]; 20 micro M) was 113 and the “Normalized (colonies)” value ([4]; 20 micro M) was 95.7627.
